# How the values were obtained:
# [1] = target: T1, Human KRAS G12D 6His-tagged (Homo sapiens, UniProt P01116, G12D); experiment: KRAS-G12D/GTP binding assay (HTRF)
# T1 construct: purchased PerkinElmer
# Procedure: In this method, the inhibitory effects of the compounds on the binding of KRAS-G12D to GTP were assayed by a homogeneous time-resolved fluorescence (HTRF) technique using a KRAS-G12D/GTP binding assay kit (PerkinElmer).
# The experimental procedures were as follows (refer to the kit instructions for detailed test methods): the compounds of the present disclosure were each firstly dissolved in DMSO at a concentration of 20 mM, and then diluted in an equal gradient with a buffer in the kit, so that the final concentrations of the test compounds in the reaction system were in a range of 0.02-5000 nM, and the final concentration of DMSO was 0.5%. 5 μL of each compound was incubated with 5 μL of 1× Human KRAS G12D 6His-tagged (PerkinElmer), 5 μL of 1×6His Eu Cryptate Antibody (PerkinElmer), and 5 μL of 1×GTP Red reagent (PerkinElmer) in a 384-well plate (Greiner) at 25° C. for 1 h. After the incubation was completed, the fluorescence intensity of each well was measured at the excitation wavelength of 337 nm and the emission wavelengths of 620 nm and 665 nm with an EnVision microplate reader (PerkinElmer) in the HTRF mode, and Ratio values were calculated using the formula: Ratio=(665 nm/620 nm)×[…]. The inhibition rates of the compounds at each concentration were calculated by comparing the fluorescence intensity ratio with that of the control group. Then non-linear curve fittings for logarithmic concentration-inhibition rate were performed using the GraphPad Prism 8 analysis software, and the IC50 values of the compounds were obtained (Table 2).
# [2] = target: T2, KRAS-G12D (Homo sapiens, UniProt P01116, G12D); experiment: KRAS-G12D degradation assay (Western Blot), A-427 cells; format: cell-based; settings: A427 cells, 24 h, class symbols; for Dmax: A-427
# T2 construct: endogenous in cells; host or cells: A-427 (ATCC), AGS, AsPc-1, Panc 04.03
# T2 sequence (P01116 1-188 isoform P01116-2 G12D): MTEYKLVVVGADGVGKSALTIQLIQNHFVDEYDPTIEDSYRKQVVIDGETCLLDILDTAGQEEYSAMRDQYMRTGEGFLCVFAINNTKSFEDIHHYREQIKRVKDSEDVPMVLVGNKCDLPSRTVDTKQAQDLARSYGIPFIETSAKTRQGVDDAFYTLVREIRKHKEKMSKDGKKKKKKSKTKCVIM
# Summary of the method: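 Each KRAS G12D mutant line (A-427, AGS, AsPc-1, Panc 04.03) was seeded at 5×10^5 cells/well and treated 24 h at 37 °C with 0.03–3000 nM compound (final DMSO 0.25%). KRAS in lysates was measured by Western blot, normalized to β-actin and compared with controls, giving DC50 and Dmax from curve fits.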
# [3] = system: KRAS G12D mutant human gastric cancer cell AGS; experiment: 3D cell proliferation inhibition assay, AGS; format: cell-based; settings: 168 h, 7 days, CTG
# Summary of the method: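 Cells were seeded at 5×10^2 cells/well in low-adsorption plates with compound (10000–0.026 nM final, 0.2% DMSO) and grown for 7 days at 37 °C, 5% CO2. Viability was read by CTG luminescence after 60 min at room temperature. IC50 came from log concentration–inhibition curve fits, normalised to DMSO and medium-only controls.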
# T1 sequence (P01116 1-188 isoform P01116-2 G12D): as above
Structure (SMILES),IC50 ([1]; class symbols) [µM],DC50 [2] [µM],Dmax [2] [%],IC50 ([3]; class symbols) [µM],IC50 ([1]; numeric values) [µM],IC50 ([3]; numeric values) [µM]
"CCc1cccc2cc(O)cc(-c3ncc4c(N5CC6CCC(C5)N6)nc(OC[C@@H]5CCCN5CCCC5CCN(C(=O)c6ccc(Cl)c(N7CCC(=O)NC7=O)c6)CC5)nc4c3F)c12 [Example 1, 1-(5-(4-(3-((S)-2-(((4-(3,8-diazabicyclo[3.2.1]octan-3-yl)-7-(8-ethyl-3-hydroxynaphthalen-1-yl)-8-fluoropyrido[4,3-d]pyrimidin-2-yl)oxy)methyl)pyrrolidin-1-yl)propyl)piperidine-1-carbonyl)-2-chlorophenyl)dihydropyrimidine-2,4(1H,3H)-dione]",0.1 to 0.5,1 to 10,30 to 50,–,–,–
"C#Cc1c(F)ccc2cc(O)cc(-c3ncc4c(N5CC6CCC(C5)N6)nc(OC[C@@H]5CCCN5CCCC5CCN(C(=O)c6ccc(Cl)c(N7CCC(=O)NC7=O)c6)CC5)nc4c3F)c12 [Example 9, 1-(5-(4-(3-((S)-2-(((4-(3,8-diazabicyclo[3.2.1]octan-3-yl)-7-(8-ethynyl-7-fluoro-3-hydroxynaphthalen-1-yl)-8-fluoropyrido[4,3-d]pyrimidin-2-yl)oxy)methyl)pyrrolidin-1-yl)propyl)piperidine-1-carbonyl)-2-chlorophenyl)dihydropyrimidine-2,4(1H,3H)-dione]",0.05 to 0.1,1 to 10,30 to 50,–,–,–
"C#Cc1c(F)ccc2cc(O)cc(-c3ncc4c(N5CC6CCC(C5)N6)nc(OC[C@@H]5CCCN5CC5CCC6(CC5)CCN(C(=O)c5ccc(Cl)c(N7CCC(=O)NC7=O)c5)CC6)nc4c3F)c12 [Example 12, 1-(5-(9-(((S)-2-(((4-(3,8-diazabicyclo[3.2.1]octan-3-yl)-7-(8-ethynyl-7-fluoro-3-hydroxynaphthalen-1-yl)-8-fluoropyrido[4,3-d]pyrimidin-2-yl)oxy)methyl)pyrrolidin-1-yl)methyl)-3-azaspiro[5.5]undecane-3-carbonyl)-2-chlorophenyl)dihydropyrimidine-2,4(1H,3H)-dione]",0.1 to 0.5,1 to 10,50 to 80,–,–,–
"C#Cc1c(F)ccc2cc(O)cc(-c3ncc4c(N5CC6CCC(C5)N6)nc(OCC5(CN6CCN(CC7CCN(C(=O)c8ccc(Cl)c(N9CCC(=O)NC9=O)c8)CC7)CC6)CC5)nc4c3F)c12 [Example 27, 1-(5-(4-((4-((1-(((4-(3,8-diazabicyclo[3.2.1]octan-3-yl)-7-(8-ethynyl-7-fluoro-3-hydroxynaphthalen-1-yl)-8-fluoropyrido[4,3-d]pyrimidin-2-yl)oxy)methyl)cyclopropyl)methyl)piperazin-1-yl)methyl)piperidine-1-carbonyl)-2-chlorophenyl)dihydropyrimidine-2,4(1H,3H)-dione]",≤ 0.05,1 to 10,30 to 50,≤ 0.05,–,–
"C#Cc1c(F)ccc2cc(O)cc(-c3ncc4c(N5CC6CCC(C5)N6)nc(OCC5(CN6CCC(CCN7CCN(C(=O)c8ccc(Cl)c(N9CCC(=O)NC9=O)c8)CC7)CC6)CC5)nc4c3F)c12 [Example 28, 1-(5-(4-(2-(1-((1-(((4-(3,8-diazabicyclo[3.2.1]octan-3-yl)-7-(8-ethynyl-7-fluoro-3-hydroxynaphthalen-1-yl)-8-fluoropyrido[4,3-d]pyrimidin-2-yl)oxy)methyl)cyclopropyl)methyl)piperidin-4-yl)ethyl)piperazine-1-carbonyl)-2-chlorophenyl)dihydropyrimidine-2,4(1H,3H)-dione]",≤ 0.05,1 to 10,< 30,–,–,–
"CCc1cccc2cc(O)cc(-c3ncc4c(N5CC6CCC(C5)N6)nc(OC[C@@H]5CCCN5CCC5CCN(CCC(=O)N[C@H](C(=O)N6C[C@H](O)C[C@H]6C(=O)NCc6ccc(-c7scnc7C)cc6)C(C)(C)C)CC5)nc4c3F)c12 [Example 34, (2S,4R)-1-((S)-2-(3-(4-(2-((S)-2-(((4-(3,8-diazabicyclo[3.2.1]octan-3-yl)-7-(8-ethyl-3-hydroxynaphthalen-1-yl)-8-fluoropyrido[4,3-d]pyrimidin-2-yl)oxy)methyl)pyrrolidin-1-yl)ethyl)piperidin-1-yl)propanamido)-3,3-dimethylbutanoyl)-4-hydroxy-N-(4-(4-methylthiazol-5-yl)benzyl)pyrrolidine-2-carboxamide]",0.1 to 0.5,1 to 10,< 30,–,–,–
"C#Cc1c(F)ccc2cc(O)cc(-c3ncc4c(N5CC6CCC(C5)N6)nc(OC[C@@H]5CCCN5CC5CCN(CCC(=O)N[C@H](C(=O)N6C[C@H](O)C[C@H]6C(=O)NCc6ccc(-c7scnc7C)cc6)C(C)(C)C)CC5)nc4c3F)c12 [Example 35, (2S,4R)-1-((S)-2-(3-(4-(((S)-2-(((4-(3,8-diazabicyclo[3.2.1]octan-3-yl)-7-(8-ethynyl-7-fluoro-3-hydroxynaphthalen-1-yl)-8-fluoropyrido[4,3-d]pyrimidin-2-yl)oxy)methyl)pyrrolidin-1-yl)methyl)piperidin-1-yl)propanamido)-3,3-dimethylbutanoyl)-4-hydroxy-N-(4-(4-methylthiazol-5-yl)benzyl)pyrrolidine-2-carboxamide]",≤ 0.05,1 to 10,< 30,–,–,–
"C#Cc1c(F)ccc2cc(O)cc(-c3ncc4c(N5CC6CCC(C5)N6)nc(OCC5CCN(CCCCC6CCC7(CC6)CCN(C(=O)c6ccc(Cl)c(N8CCC(=O)NC8=O)c6)CC7)CC5)nc4c3F)c12 [Example 52, 1-(5-(9-(4-(4-(((4-(3,8-diazabicyclo[3.2.1]octan-3-yl)-7-(8-ethynyl-7-fluoro-3-hydroxynaphthalen-1-yl)-8-fluoropyrido[4,3-d]pyrimidin-2-yl)oxy)methyl)piperidin-1-yl)butyl)-3-azaspiro[5.5]undecane-3-carbonyl)-2-chlorophenyl)dihydropyrimidine-2,4(1H,3H)-dione]",0.1 to 0.5,0.1 to 0.5,50 to 80,–,–,–
"C#Cc1c(F)ccc2cc(O)cc(-c3ncc4c(N5CC6CCC(C5)N6)nc(OCC5(CN6CC7CCC(C6)N7CC6CCC7(CC6)CCN(C(=O)c6ccc(Cl)c(N8CCC(=O)NC8=O)c6)CC7)CC5)nc4c3F)c12 [Example 58, 1-(5-(9-((3-((1-(((4-(3,8-diazabicyclo[3.2.1]octan-3-yl)-7-(8-ethynyl-7-fluoro-3-hydroxynaphthalen-1-yl)-8-fluoropyrido[4,3-d]pyrimidin-2-yl)oxy)methyl)cyclopropyl)methyl)-3,8-diazabicyclo[3.2.1]octan-8-yl)methyl)-3-azaspiro[5.5]undecane-3-carbonyl)-2-chlorophenyl)dihydropyrimidine-2,4(1H,3H)-dione]",0.5 to 1,≤ 0.05,80 to 100,–,–,–
"C#Cc1c(F)ccc2cc(O)cc(-c3ncc4c(N5CC6CCC(C5)N6)nc(OCC5(CN6CCN(C(=O)c7ccc(Cl)c(N8CCC(=O)NC8=O)c7)CC6)CC5)nc4c3F)c12 [Example 69, 1-(5-(4-((1-(((4-(3,8-diazabicyclo[3.2.1]octan-3-yl)-7-(8-ethynyl-7-fluoro-3-hydroxynaphthalen-1-yl)-8-fluoropyrido[4,3-d]pyrimidin-2-yl)oxy)methyl)cyclopropyl)methyl)piperazine-1-carbonyl)-2-chlorophenyl)dihydropyrimidine-2,4(1H,3H)-dione]",–,–,–,–,0.0024,–
"C#Cc1c(F)ccc2cc(O)cc(-c3ncc4c(N5CC6CCC(C5)N6)nc(OCC5(CN6CCC7(CC6)CCN(C(=O)c6ccc(Cl)c(N8CCC(=O)NC8=O)c6)CC7)CC5)nc4c3F)c12 [Example 85, 1-(5-(9-((1-(((4-(3,8-diazabicyclo[3.2.1]octan-3-yl)-7-(8-ethynyl-7-fluoro-3-hydroxynaphthalen-1-yl)-8-fluoropyrido[4,3-d]pyrimidin-2-yl)oxy)methyl)cyclopropyl)methyl)-3,9-diazaspiro[5.5]undecane-3-carbonyl)-2-chlorophenyl)dihydropyrimidine-2,4(1H,3H)-dione]",–,–,–,–,0.00134,0.0502
